Data as given in patent US7714014B2, “Targeting GLI proteins in human cancer by small molecules” (The Regents of the University of California, priority 2005, dated 2010).

Assays:
[1] = test system: human SOCS3 promoter in NSCLC cell line A549; assay: SOCS3 promoter-luciferase reporter assay; format: cell-based; details: A549, 30 μM, 18-24 hours
Method: One day before transfection, cells (1×10^5) were plated in 12-well plates with growth medium without antibiotics. When cells reached 80-90% of confluence they were co-transfected using 0.5 μg of each promoter construct in pGL3Basic vector and 0.025 μg pRL-TK Vector (Promega; Madison, Wis.) containing Renilla Luciferase as an internal control for the transformation efficiency. Lipofectamine 2000™ (Invitrogen Life Technologies) was used to mediate transfection for about 6 hours. Then the medium was replaced with fresh medium containing various small molecule compounds at a concentration of 30 μM, and the resulting cells were cultured for an additional 18-24 hours and subjected to luciferase assay. Briefly, cells were lysed in a lysis buffer and Firefly and Renilla Luciferase activities in cells of each well, were measured using Dual-Luciferase Assay System (Promega) and an illuminometer. The measured luciferase activities were normalized to pRL-TK Vector activity and were given relative to the basal activity of empty pGL3-Basic Vector, which was set to unity. The data shown represent mean values (±S.D.). All measurements were performed in triplicate and repeated in at least three independent experiments. The human Wnt-2 promoter-luciferase construct, the human SOCS3 promoter-Luciferase construct and the human Gremlin promoter-luciferase construct were cloned and characterized in the laboratory of Dr. Jablons at the University of California, San Francisco (San Francisco, Calif.; He et al., Biochem Biophy Res Comm, 2003; and unpublished data). The 6GLI-TKO-luciferase construct (containing 6 repeats of consensus GLI DNA binding sequence) was kindly provided by Dr. Matthias Hebrok's laboratory at the University of California, San Francisco (San Francisco, Calif.).
As a third specificity test for the small molecule compounds of the present invention, the ability of these compounds to regulate the expression of genes that are not down-stream targets of the Gli activation was analyzed. SOCS3, an inhibitor and down-stream target gene of JAK/STAT pathway was chosen for this experiment. Expression of SOCS3 is not under control of Gli and/or Wnt activation. Furthermore, no GLI and TCF binding sites were found in the human SOCS3 promoter cloned in the laboratory of Dr. Jablons (University of California, San Francisco; data not shown). Thus, SOCS3 promoter-luciferase reporter activity was measured after the treatment of the NSCLC cell line A549 with small molecule compounds FN1-5, FN1-7, FN1-8, and FN1-9U.

[2] = test system: normal human muscle cells; assay: Cell survival assay (crystal violet); format: cell-based; details: 1, 10, 30, and 50 μM, 3 days
Method: (§1) Typically, the small molecule compounds of the present invention were dissolved in DMSO at a concentration of 30 mM. The small molecule compounds were then tested under cell culture conditions at different concentrations ranging from 0, 10, 30, 50, to 100 uM. To determine cell survival after treatment, the cells were incubated with the small molecule compounds in 6-well plates for about 3 days. After removal of the cell culture medium, 1-ml of 0.5% crystal violet solution (prepared in 20% ethanol and 20% methanol) was added to stain the cells for 5 min. Then the crystal violet solution was rinsed clean with tap water. Cell survival was estimated based on the density of crystal stained plates.
The cell killing effect of small molecule compounds FN1-8, FN1-7, and FN1-5 at different doses was examined in normal human muscle cells. […] Normal muscle cells were plated in 6-well plates and incubated with 1, 10, 30, and 50 μM of each compound for 3 days, in the same manner as described herein for similar other experiments. […] Both FN1-5 and FN1-8 seem to be specific in killing cancer cells.

melanoma cell line LOX = assay: Cell survival assay (crystal violet); format: cell-based, human; details: 100 μM, 3 days
Method: as §1
The effect of small molecule compounds FN1-5, FN1-8, FN1-7, FN1-9U, and FN1-9S was tested using a cytotoxicity assay and the melanoma cell line LOX. LOX cells were plated in 6-well plates and incubated with 100 μM of each compound (stocks were dissolved in DMSO at 30 mM) for 3 days, as described herein. […] Live cells were stained by 0.5% crystal violet.
Cell killing was also tested using human melanoma cell line LOX and different doses of the small molecule compounds FN1-5 and FN1-8. LOX cells were plated in 6-well plates and incubated with 10, 30, and 50 μM of each compound for 3 days, as described herein.

[3] = test system: primary cultured human mesothelioma cells; assay: Cell survival assay (crystal violet); format: cell-based; details: 50 and 100 μM, 3 days
Method: Fresh cancer tissue and adjacent normal tissue from patients undergoing curative primary resection of their tumors were collected at the time of surgery (IRB approval H8714-15319-040), and immediately snap-frozen in liquid nitrogen. These tissue samples were kept at −170° C. in a liquid nitrogen freezer until further use. Primary tissue cultures were prepared as follows: Fresh cancer tissue was obtained with consent from patients undergoing resection, cut into small pieces (1-2 mm in diameter), and then digested with Collagenase A (Roche Applied Science, Indianapolis, Ind.) at room temperature for 2 hours according to manufacture's protocol. Single cells from the digestion were spun down and the cell pellets were washed twice using RPMI 1640 supplemented with 10% fetal bovine serum, penicillin (100 IU/ml) and streptomycin (100 μg/ml). Then, the cells were resuspended in the same medium and cultured in 6-well plates at 37° C. in a humid incubator with 5% CO2 until they were ready for further treatments.
as §1
Next, the effect of different small molecule compounds on primary cultured human mesothelioma cells freshly made from tissue samples was examined. The primary cultures were plated in 6-well plates as described herein and incubated with 50 and 100 μM of each compound (FN1-5, FN1-7, FN1-8, and FN3-5; stocks were dissolved in DMSO at 30 mM) for 3 days. […] (FIG. 8).

[4] = test system: mesothelioma cell line MS-1; assay: Cytotoxicity and apoptosis assays; format: cell-based, human; details: 10, 30, 50, and 100 μM (FN1-9U effect at 100 μM)
Method: as §1
(§2) Apoptosis was analyzed by using an Annexin V FITC Apoptosis Detection Kit (Biosource, Camarillo, Calif.), according to the manufacturer's protocol. After treatment with different small molecule compounds at various concentrations for about 3 days, cells were harvested by trypsinization, stained and immediately analyzed by flow cytometry (FACScan; Decton Dickinson, Franklin Lake, N.J.). Early apoptotic cells with exposed phosphatidylserine but intact cell membranes will bind to Annexin V-FITC, but not propidium iodide (PI). Cells in necrotic or late apoptotic stages will be labeled with both Annexin V-FITC and PI. […]

[5] = test system: colon cancer cell lines SW480 and HCT116; assay: Cytotoxicity and apoptosis assays; format: cell-based, human; details: 10, 30, 50, and 100 μM; data not shown
Method: as §1, §2

H1299 and A549 cells = assay: Cytotoxicity and apoptosis assays; format: cell-based, human; details: 10, 30, 50, and 100 μM; data not shown
Method: as §1, §2

Compound | SOCS3 promoter activity [1] | cell killing effect in normal cells [2] | cell killing effect (melanoma cell line LOX) | cell killing effect [3] | cell killing effect or apoptosis [4] | cell killing effect or apoptosis [5] | cell killing effect or apoptosis (H1299 and A549 cells)
O=C(NCCCO)C1C(c2ccccc2)=NN(c2ccccc2)C1c1ccccc1 (stereo not shown) [FN1-7, N-(3-Hydroxypropyl)-1,3,5-triphenyl-4,5-dihydro-pyrazole-4-carboxyanide] | inactive | No noticeable cell killing effect | Some killing | No significant cell killing | – | – | –
O=C(O)CCCCNC(=O)C1C(c2ccccc2)=NN(c2ccccc2)C1c1ccccc1 (stereo not shown) [FN1-9U, 5-(1,3,5-Triphenyl-4,5-dihydro-pyrazole-4-carbonyl)aminopentanoic acid] | inactive | – | Some killing | – | some cell killing | No dramatic cell killing effect or apoptosis | no noticeable cell killing effect or apoptosis
CC(C)CC1=NN(c2ccccc2)C(CC(C)C)C1C(=O)NCCCCCO (stereo not shown) [FN3-5, N-(5-Hydroxypentyl)-1-phenyl-3,5-bis(isobutyl)-4,5-dihydro-pyrazole-4-carboxyamide] | – | – | – | No significant cell killing | – | – | –
O=C(O)CCCCNC(=O)C1C(c2ccccc2)C(c2ccccc2)=NN1c1ccccc1 (stereo not shown) [FN1-9S, 5-(1,3,4-triphenyl-4,5-dihydro-pyrazole-5-carbonyl)aminopentanoic acid] | – | – | – | – | no cell killing effect or apoptosis | No dramatic cell killing effect or apoptosis | no noticeable cell killing effect or apoptosis
